Test results reported in PubChem BioAssay AID1259411 (Chemical Carcinogenesis Research Information System (CCRIS), 2018).
The source made the active and inactive calls. How the calls were made is not given here.

Tested on: rodent carcinogenicity bioassays, tumor incidence
Assay: CCRIS carcinogenicity studies
In short: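 Archive of carcinogenicity, mutagenicity, tumor promotion and tumor inhibition results drawn from journals, NCI reports and other sources, expert-reviewed; covers 1985-2011 and is no longer updated.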

## O=NN1CCOCC1
Species: FISH, Route: ORAL, Tumor Site: Type of Lesion: LIVER
  carcinogen call: active; positive
Species: HAMSTER, Route: ORAL, Tumor Site: Type of Lesion: LIVER
  carcinogen call: active; positive
Species: HAMSTER, Route: SUBCUTANEOUS, Tumor Site: Type of Lesion: TRACHEA, NASAL CAVITY
  carcinogen call: active; positive
Species: HAMSTER, Strain/Sex: SYRIAN/MALE, Route: INHALATION, Dose: 0, 14.4 MG/M3 4 HR/D 4-5 D/WK FOR 5 WK FOR A DAILY DOSE OF 0, 1.8 MG/KG (STUDY DURATION: 91 WK), Dose: 0, 14.4 MG/M3 4 HR/D 4-5 D/WK FOR 5 WK FOR A DAILY DOSE OF 0, 1.8 MG/KG (STUDY DURATION: 91 WK), Tumor Site: Type of Lesion: LIVER: HEPATOCELLULAR CARCINOMA OR HEMANGIOENDOTHELIOMA OR CARCINOMA, FORESTOMACH: PAPILLOMA, TRACHEA: PAPILLOMA, Tumor Site: Type of Lesion: LIVER: HEPATOCELLULAR CARCINOMA OR HEMANGIOENDOTHELIOMA OR CARCINOMA, FORESTOMACH: PAPILLOMA, TRACHEA: PAPILLOMA
  carcinogen call: active; positive
Species: HAMSTER, Strain/Sex: SYRIAN/MALE, Route: INTRAGASTRIC, Dose: 0, 26 MG/ML IN 0.2 ML STERILIZED WATER 1/WK FOR 26 WK (TOTAL DOSE 135 MG) (STUDY DURATION: LIFESPAN), Tumor Site: Type of Lesion: NASAL CAVITY: CARCINOMA, TRACHEA: ADENOMA
  carcinogen call: active; positive
Species: MOUSE, Route: ORAL, Tumor Site: Type of Lesion: LIVER, LUNG
  carcinogen call: active; positive
Species: MOUSE, Strain/Sex: STRAIN-A/FEMALE, Route: ORAL, Dose: 0, 0.2 UMOL/ML IN DRINKING WATER FOR 10 WK (TOTAL DOSE: 0, 54 UMOL) FOLLOWED BY TAP WATER FOR 20 WK (STUDY DURATION: 30, Tumor Site: Type of Lesion: LUNG: TUMORS
  carcinogen call: active; positive
Species: RAT, Route: ORAL, Tumor Site: Type of Lesion: KIDNEY, LIVER
  carcinogen call: active; positive
Species: RAT, Strain/Sex: F344/FEMALE, Route: GAVAGE, Dose: 0, 10 MG/WK FOR A TOTAL DOSE OF 1.9 MMOL (STUDY DYRATION: 30 WK), Tumor Site: Type of Lesion: ESOPHAGUS: TUMOR, LIVER: TUMOR, THYROID: TUMOR, Tumor Site: Type of Lesion: ESOPHAGUS: TUMOR, LIVER: TUMOR, THYROID: TUMOR
  carcinogen call: active; positive
Species: RAT, Strain/Sex: F344/FEMALE, Route: INTRAVESICULAR, Dose: 0, 5 MG IN 0.2 ML ETHANOL: DEIONIZED WATER (1:3) 2/WK FOR 30 WK (TOTAL DOSE 2.6 MMOL) (STUDY DURATION: LIFESPAN), Tumor Site: Type of Lesion: LIVER: TUMOR, NASAL MUCOSA: TUMOR, ESOPHAGUS: TUMOR, Tumor Site: Type of Lesion: LIVER: TUMOR, NASAL MUCOSA: TUMOR, ESOPHAGUS: TUMOR
  carcinogen call: active; positive
Species: RAT, Strain/Sex: F344/FEMALE, Route: ORAL, Dose: 0, 26.5 MG/L IN DRINKING WATER 5 D/WK FOR 50 WK (TOTAL DOSE: 0; 1.1 MMOL) (STUDY DURATION: 124 WK), Dose: 0, 26.5 MG/L IN DRINKING WATER 5 D/WK FOR 50 WK (TOTAL DOSE: 0; 1.1 MMOL) (STUDY DURATION: 124 WK), Tumor Site: Type of Lesion: LIVER: HEPATOCELLULAR TUMOR, HEMANGIOSARCOMA
  carcinogen call: active; positive
Species: RAT, Strain/Sex: F344/FEMALE, Route: ORAL, Dose: 40 MG/L IN DRINKING WATER FOR 50 WK, Tumor Site: Type of Lesion: LIVER: HEPATOCELLULAR CARCINOMA, HEMANGIOENDOTHELIAL SARCOMA, ESOPHAGUS: PAPILLOMA, CARCINOMA
  carcinogen call: active; positive
Species: RAT, Strain/Sex: F344/MALE, Route: ORAL, Dose: 0, 0.02% IN DRINKING WATER FOR 8 WK (STUDY DURATION: 20 WK), Tumor Site: Type of Lesion: LIVER: HEPATOCELLULAR CARCINOMA
  carcinogen call: active; positive
Species: RAT, Strain/Sex: F344/MALE, Route: ORAL, Dose: 16, 40 MG/L IN DRINKING WATER FOR 50 WK, Tumor Site: Type of Lesion: LIVER: HEPATOCELLULAR CARCINOMA, HEMANGIOENDOTHELIAL SARCOMA, ESOPHAGUS: PAPILLOMA
  carcinogen call: active; positive
Species: RAT, Strain/Sex: SD/G/MALE, Route: ORAL, Dose: 0, 0.02% IN DRINKING WATER FOR 8 WK (STUDY DURATION: 20 WK)
  carcinogen call: inactive; negative
Species: RAT, Strain/Sex: SPRAGUE-DAWLEY/FEMALE, Route: INHALATION, Dose: 0, 7.7 MG/M3 4 HR/D 4-5 D/WK FOR 6 WK FOR A DAILY DOSE OF 0, 0.5 MG/KG (STUDY DURATION: 124 WK), Dose: 0, 7.7 MG/M3 4 HR/D 4-5 D/WK FOR 6 WK FOR A DAILY DOSE OF 0, 0.5 MG/KG (STUDY DURATION: 124 WK), Tumor Site: Type of Lesion: LIVER: HEPATOCELLULAR CARCINOMA, NEOPLASTIC NODULE
  carcinogen call: active; positive
Species: RAT, Strain/Sex: WS/MALE, Route: ORAL, Dose: 0, 0.02% IN DRINKING WATER FOR 8 WK (STUDY DURATION: 20 WK), Tumor Site: Type of Lesion: LIVER: HEPATOCELLULAR CARCINOMA
  carcinogen call: active; positive

## Cc1cc2c(c3ccc4ccccc4c13)[C@@H]1O[C@@H]1[C@H](O)[C@H]2O
Species: MOUSE, Strain/Sex: ICR/FEMALE, Route: INTRAPERITONEAL, Dose: 8 NMOL/5 µL DMSO ON DAY 1, 16 NMOL/10 µL ON DAY 8, AND 32 NMOL/20 µL ON DAY 15 OF AGE (STUDY DURATION: 35 WK)
  carcinogen call: inactive; negative
Species: MOUSE, Strain/Sex: ICR/MALE, Route: INTRAPERITONEAL, Dose: 8 NMOL/5 µL DMSO ON DAY 1, 16 NMOL/10 µL ON DAY 8, AND 32 NMOL/20 µL ON DAY 15 OF AGE (STUDY DURATION: 35 WK), Tumor Site: Type of Lesion: LUNG: TUMORS
  carcinogen call: active; positive

## CN(CCC(=O)O)N=O
Species: MOUSE, Strain/Sex: STRAIN-A/FEMALE, Route: INTRAPERITONEAL, Dose: 0, 200 UMOL MOUSE (TOTAL DOSE) ADMINISTERED IN 0.1 ML SALINE 3/WK (TOTAL 20 INJECTIONS) (STUDY DURATION: 37 WK), Tumor Site: Type of Lesion: LUNG: ADENOCARCINOMA, ADENOMA
  carcinogen call: active; positive

## O=C1OC(=O)c2ccccc21
Species: MOUSE, Strain/Sex: B6C3F1/FEMALE, Route: ORAL, Dose: 0, 12019, 24038 PPM IN DIET, TWA (STUDY DURATION: 104 WK), Dose: 0, 12019, 24038 PPM IN DIET, TWA (STUDY DURATION: 104 WK)
  carcinogen call: inactive; negative
Species: MOUSE, Strain/Sex: B6C3F1/MALE, Route: ORAL, Dose: 0, 16346, 32692 PPM IN DIET, TWA (STUDY DURATION: 104 WK), Dose: 0, 16346, 32692 PPM IN DIET, TWA (STUDY DURATION: 104 WK)
  carcinogen call: inactive; negative
Species: RAT, Strain/Sex: F344/FEMALE, Route: ORAL, Dose: 0, 7500, 15000 PPM IN DIET FOR 105 WK, Dose: 0, 7500, 15000 PPM IN DIET FOR 105 WK
  carcinogen call: inactive; negative
Species: RAT, Strain/Sex: F344/MALE, Route: ORAL, Dose: 0, 7500, 15000 PPM IN DIET FOR 105 WK, Dose: 0, 7500, 15000 PPM IN DIET FOR 105 WK
  carcinogen call: inactive; negative

## CCO[Si](CCC1CCC2OC2C1)(OCC)OCC (stereo not given)
Species: MOUSE, Strain/Sex: C3H/MALE, Route: DERMAL, Dose: 0, 2 MG IN ACETONE 3/WK FOR DURATION OF STUDY (STUDY DURATION: LIFETIME)
  carcinogen call: inactive; negative
